Data on eight molecules can be found in publication PMC6305398, “Red Fluorescent Chlamydia trachomatis Applied to Live Cell Imaging and Screening for Antibacterial Agents” (Frontiers in Microbiology, 2018).

The subject of data set [1] is mCherry expressing C. trachomatis serovar L2 454/Bu. Briefly: Primary screen of natural compound library, Chlamydia inclusion count (mCherry imaging and FITC immunostaining in duplicate plates). Format: cell-based, Chlamydia trachomatis. The note with it: Chlamydia trachomatis, 10 μM, 48 hpi, HeLa cells, vs DMSO control. The protocol:
A general and more detailed protocol for the screening assay is provided in (Supplementary Data Sheet 1) and an overview of the screening method is given in Figure 3. Since inhalation of C. trachomatis aerosols can cause laboratory acquired infections (Sewell, [1995]), all procedures involving handling of live infection in open plates were performed manually inside a class II safety cabinet using 8-channel electronic pipets (Rainin E4 XLS, Mettler Toledo, Barcelona, Spain) and an enclosed aspiration system (Intergra VacuSafe, Zizers, Switzerland).
The primary screen of the 349 open access compound library was performed using the mCherry expressing C. trachomatis serovar L2 454/Bu in clear, flat 96-well plates (Nunc, Delta surface, Thermo Fischer Scientific). The primary screen was done in duplicates in separated plates; one plate was used for mCherry imaging and the other for FITC immunostaining. Cells were seeded at a density of 10,000 cells per well in 100 μl DMEM media 1 day prior to infection in culture media. Chlamydia infection was performed in 30 μl HBSS as described above with a MOI of 0.6 during 1 h at 37°C, 5% CO2. Compounds were diluted to 10 μM in DMEM with a final DMSO concentration of 0.5% and 100 μl per well was added after aspiration of HBSS. The plates were incubated for an additional 47 h at 37°C, 5% CO2 prior to imaging. One of the duplicate plates was used for mCherry imaging and one for FITC immunostaining. For mCherry imaging, HeLa cell nuclei were first stained by addition of 10 μl […] Hoechst per well and incubated at 37°C with 5% CO2 for 20 min. The infected cells were fixed in 4% paraformaldehyde (PFA) for 15 min and washed in PBS before image acquisition. Although fixation was not necessary for the analysis, it inactivated the infectious Chlamydia and enabled later analysis after storage at 4°C. For FITC immunostaining, cells were fixed in 150 μl methanol per well for 10 min, blocked in 1% BSA, 0.25% Tween-20 in PBS and incubated with 1:1,000 polyclonal rabbit anti-chlamydial serum in blocking buffer (Marwaha et al., [2014]). A FITC-conjugated donkey anti-rabbit antibody (Jackson ImmunoResearch) and 1 μg/ml Hoechst staining was used for staining followed by washing with blocking buffer. Images of nuclei (Hoechst-ex386/23 nm) and Chlamydia inclusions (FITC: ex485/20 nm; mCherry: ex549/15 nm) were acquired in the ArrayScan with the 10x objective and counted with the built in software. Chlamydia inclusions in DMSO control wells were used to determine an inclusion size cutoff to exclude small underdeveloped inclusions as well as fluorescent artifacts from the analyses.

A short description of the next data set: in vitro. The data set is classed as cell-based. The note with it: human, 48 h, percent of DMSO control; for viability at 25 µM: read-out: HeLa cell viability at 25 μM (%); for viability at 50 µM: read-out: HeLa cell viability at 50 μM (%) (converted). The protocol:
(§1) HeLa299 cells were inoculated into clear, flat 96-well plates (Nunc, Delta surface, Thermo Fischer Scientific) with a density of 7,000 cells per well and cultured overnight at 37°C with 5% CO2 in […] supplemented with 10% FBS and 2 mM L-glutamine. The following day, the RPMI was replaced with DMEM without phenol red (Life Technologies, Carlsbad, CA, USA) containing 0.5% DMSO with or without test compounds at 25 and 50 μM concentrations incubated at 37°C with 5% CO2 for 48 h. At least three replicate wells for each compound concentration were tested. Wells without cells were used as blank controls. Following this incubation with compounds, cells were washed with DMEM to remove remaining colored compounds and fresh DMEM without phenol red was added before the XTT Cell Proliferation Assay kit was used according to the manufacturer's instructions (ATCC, Manassas, VA, USA). Briefly, activation reagent and XTT reagent were thawed at 37°C, then mixed in a 1:50 ratio with enough volume to add 50 μL to each well. The plates were placed in the 37°C incubator for 2.5 h. The absorbance of each well was then read at 475 nm and 660 nm with a Tecan Infinite m200 plate reader (Tecan, Männedorf, Switzerland). To analyze the data, the 660 nm reading was subtracted from the 475 nm reading to help eliminate non-specific readings from the assay results. Average blank control-well readings were subtracted from those containing cells. Final readings from wells containing compound were compared to DMSO control wells and expressed as percent of control.

In the next data set the test system is HeLa cells. Briefly: in vitro. Format: cell-based. The note with it: non-toxic = viability not below 70% of vehicle control at 25 μM. The protocol:
as §1

In the next data set the test system is wt C. trachomatis. Briefly: EC50 determination, large inclusion count in infected HeLa cells, FITC immunostaining. Format: cell-based, Chlamydia trachomatis. The following applies: wt strain, 44-48 h; for EC50: Chlamydia trachomatis, read-out: EC50 (95% confidence values). The protocol:
(§2) HeLa cells were inoculated into 96-well plates (Nunc, Corning, New York, USA) with a density of 15,000 cells per well and cultured overnight at 37°C with 5% CO2 in RPMI 1640, supplemented with 10% FBS and 2 mM L-glutamine, and infected the following day with wt or mCherry C. trachomatis in HBSS. At 1 hpi, the inoculum was replaced with RPMI media containing 0.5% DMSO and serial 1:2 dilutions of the tested compounds. The infection was allowed to proceed for 44–48 h before fixation by aspiration of the media and adding methanol for 5 min. Chlamydia inclusions were immunostained as described above. The numbers of large inclusions were counted by the ArrayScan VTI HCS automated scanner. Inhibition of Chlamydia growth was evaluated as the number of inclusions in compound treated infections (evaluated in 12 fields per well, 20x objective) compared to the numbers of inclusions in DMSO treated control infections (% of control). EC50 values are representative of at least three independent experiments. The data analysis was performed using non-linear regression (curve fit) in GraphPad Prism v.5.

The subject of data set [2] is mCherry expressing C. trachomatis. The data set is described as above. The data set is classed as cell-based. The following applies: Chlamydia trachomatis, read-out: EC50 (95% confidence values). The protocol: as §2
Data set [3] concerns mCherry transformed C. trachomatis. In words: Live real time imaging of C. trachomatis infection (time-lapse 24-72 hpi). The data set is classed as cell-based, Chlamydia trachomatis. The following applies: HeLa cells. As to the method:
The anti-chlamydial effect over time of compound 6 (identified in the above screen) was visualized by a time-lapse experiment. HeLa cells were seeded at a concentration of 10,000 cells per well 1 day prior to infection. Chlamydia infection was performed as described above at MOI 0.6 with mCherry transformed C. trachomatis. Phenol red free DMEM culture media containing 6 or 3 μM 6 or 0.5% DMSO was added at 100 μl per well 1 hpi. Images were acquired with 1 h intervals with the 10x objective acquiring 4 fields per well during 48 h. The red channel was used for autofocusing and therefore imaging was initialized 24 hpi when the mCherry expressing inclusions were detectable, continuing to 72 hpi.

For data set [4] the following is noted: ref Davis et al., 2013; cited from earlier work.
A further data set concerns mammalian cells. The note with it: ref Davis et al., 2013; cited from earlier work.
The mark [5] stands for this setting: MOI 0.6, FITC immunostaining, read-out: Screen inhibition at 10 μM (%) FITC.
[6] abbreviates: MOI 0.6, mCherry detection, read-out: Screen inhibition at 10 μM (%) mCherry.

The structures appear in SMILES notation. Entries after “also recorded” stand apart in the source; their conditions may differ. Like-named read-outs stand apart in the source and are kept apart here.

In general, inhibition refers to the percentage by which the read-out fell short of the control. As a reminder, the viability is the share of living cells, or the viability signal relative to a control. For `C[C@]1(O)Cc2c(O)c3c(c(O)c2[C@@H](O)C1)C(=O)C=C(NCCc1ccc(O)cc1)C3=O` [Compound 3], the inhibition at 10 µM in data set [1] (setting [5]) stood at 100%. Besides, in “in vitro”, the viability at 25 µM was 41 ± 2.5% and the viability at 50 µM was 24%. Moreover, the “Toxicity to HeLa cells (authors' call)” value with HeLa cells is “toxic”.

A word on the EC50: it is the midpoint of the concentration-response curve. `C[C@]1(O)Cc2c(O)c3c(c(O)c2[C@@H](O)C1)C(=O)C=C(NCCN1CCOCC1)C3=O` [Compound 4]: the inhibition at 10 µM in data set [1] (setting [5]) stood at 100%. Besides, the inhibition at 10 µM in data set [1] (setting [6]) came to 98%. Further, in the data set “in vitro”, the viability at 25 µM was at least 70% and the viability at 50 µM was 74%. For the same molecule, the “Toxicity to HeLa cells (authors' call)” value with HeLa cells is “non-toxic”. Also, the EC50 in the data set on wt C. trachomatis amounted to 20.8 µM.

For the molecule `CC(=O)NCCc1c[nH]c2c1C(=O)C1=C(NC=CS1(=O)=O)C2=O` [Compound 7], the inhibition at 10 µM was 100% in data set [1] (setting [5]) and 99% in data set [1] (setting [6]). Further, the viability at 25 µM in the data set “in vitro” amounted to 17 ± 2%. Further, the viability at 50 µM in the data set “in vitro” was 6%. Moreover, the “Toxicity to HeLa cells (authors' call)” value in the data set on HeLa cells was “toxic”.

Consider `CC(C)(C)NC(=O)NCCc1c[nH]c2c1C(=O)C1=C(NC=CS1(=O)=O)C2=O` [Compound 8], for which the inhibition at 10 µM in data set [1] (setting [5]) was determined as 100%. In addition, the inhibition at 10 µM in data set [1] (setting [6]) worked out at 100%. Besides, in “in vitro”, the viability at 25 µM was 30 ± 7% and the viability at 50 µM is 11%. Besides, the “Toxicity to HeLa cells (authors' call)” value in the data set with HeLa cells is “toxic”.

Turning to `CCCCNC(=O)NCCc1c[nH]c2c1C(=O)C1=C(NC=CS1(=O)=O)C2=O` [Compound 9], the inhibition at 10 µM in data set [1] (setting [5]) and in data set [1] (setting [6]) was 100% each time. Also, the viability at 25 µM in “in vitro” was found to be 37 ± 6.5%. For the same molecule, the viability at 50 µM in the data set “in vitro” is 11.5%. The “Toxicity to HeLa cells (authors' call)” value in the data set with HeLa cells was “toxic”.

With `NCCc1c[nH]c2c1C(=O)C1=C(NCCS1(=O)=O)C2=O` [Compound 6], the inhibition at 10 µM in data set [1] (setting [5]) and in data set [1] (setting [6]) was 100% each time. Besides, the viability at 25 µM in the data set “in vitro” was 77 ± 0.2%. The viability at 50 µM in the data set “in vitro” is 55%. For the same molecule, the “Toxicity to HeLa cells (authors' call)” value in the data set on HeLa cells was “non-toxic”. Besides, the results for the half-maximal effective concentration (EC50) (with wt C. trachomatis; in data set [2]) were 2.8 µM and 1.7 µM, respectively. Also, the “Growth of red fluorescent Chlamydia inclusions in live imaging” value in data set [3] (3 μM, compared to DMSO control) is “grew at a slower pace; also recorded: continuous growth reduction”. In addition, in data set [3] (6 μM), the “Red fluorescent Chlamydia inclusions in live imaging” value is given as “not detectable”. Moreover, in data set [4], the “In vitro antimalarial effect, active concentrations” value was “low nanomolar concentrations”. In addition, in the data set with mammalian cells, the “Toxicity in mammalian cells” value is “non-toxic”.

As for `COCCNC1=CC(=O)c2c(O)c3c(c(O)c2C1=O)C[C@](C)(O)C[C@@H]3O` [Compound 1], the inhibition at 10 µM in data set [1] (setting [5]) and in data set [1] (setting [6]) was 100% each time. The viability at 50 µM in “in vitro” was 58.5%. The “Toxicity to HeLa cells (authors' call)” value with HeLa cells is reported as “non-toxic”. Besides, the results for the EC50 (in the data set on wt C. trachomatis; in data set [2]) were 5.3 µM and 2.8 µM, respectively. In the data set on wt C. trachomatis, the “EC50 (95% confidence values)” value is recorded as “low micromolar”.

`C[C@]1(O)Cc2c(O)c3c(c(O)c2[C@@H](O)C1)C(=O)C=C(NCCc1ccccc1)C3=O` [Compound 2]: the inhibition at 10 µM in data set [1] (setting [5]) worked out at 100%. The inhibition at 10 µM in data set [1] (setting [6]) was found to be 66%. In the data set “in vitro”, the viability at 25 µM was at least 70% and the viability at 50 µM is 31%. In addition, in the data set on HeLa cells, the “Toxicity to HeLa cells (authors' call)” value was “non-toxic”. Moreover, in the data set on wt C. trachomatis, the half-maximal effective concentration (EC50) is 23 µM.
